ChEMBL document CHEMBL1143717, “Biologically active natural products from Mongolian medicinal plants Scorzonera divaricata and Scorzonera pseudodivaricata” (J Nat Prod, 2007)
Calls of active or inactive are those of the source. The calls are words filed in the database; no cut-off is given here.

Tested on: Radical scavenging activity
Assay: Antioxidant activity assessed as DPPH radical scavenging activity
Assay type: functional

Row | SMILES | Activity
1 | CCCCCC(=O)O[C@H]1[C@H](Oc2cc(CC(=O)CCc3ccc(O)cc3)c(O)c(C(=O)O)c2)O[C@H](CO)[C@@H](O)[C@@H]1O | inactive
2 | CC1=CC(=O)C2=C(C)C[C@H](OC(=O)CCc3ccc(OC4O[C@H](CO)[C@@H](O)[C@H](O)[C@H]4O)cc3)[C@@H]3[C@H](OC(=O)[C@H]3C)[C@@H]12 (some centres not stated) | inactive
